# Experimental data from the NIST ThermoML archive (doi:10.1016/j.tca.2018.04.007).
# Numbers after ± are expanded uncertainties.
# Columns and labels:
# [1] = 101.33 kPa, Liquid; for viscosity: Capillary tube (Ostwald / Ubbelohde) method; for mass density: Vibrating tube method; for thermal conductivity: transient hot wire; for electrical conductivity: Direct current cell with electrodes
# [2] = refractive index (Na D-line) (dimensionless); conditions: 101.33 kPa, Liquid, Standard Abbe refractometry
SMILES,mass density ([1]; 283.15 K) [kg/m3],viscosity ([1]; 293.15 K) [mPa·s],electrical conductivity ([1]; 293.15 K) [S/m],mass density ([1]; 293.15 K) [kg/m3],thermal conductivity ([1]; 293.15 K) [W/m/K],viscosity ([1]; 303.15 K) [mPa·s],electrical conductivity ([1]; 303.15 K) [S/m],mass density ([1]; 303.15 K) [kg/m3],thermal conductivity ([1]; 303.15 K) [W/m/K],viscosity ([1]; 313.15 K) [mPa·s],electrical conductivity ([1]; 313.15 K) [S/m],mass density ([1]; 313.15 K) [kg/m3],thermal conductivity ([1]; 313.15 K) [W/m/K],viscosity ([1]; 323.15 K) [mPa·s],electrical conductivity ([1]; 323.15 K) [S/m],mass density ([1]; 323.15 K) [kg/m3],thermal conductivity ([1]; 323.15 K) [W/m/K],viscosity ([1]; 333.15 K) [mPa·s],electrical conductivity ([1]; 333.15 K) [S/m],thermal conductivity ([1]; 333.15 K) [W/m/K],also measured
CCCC[P+](C)(CCCC)CCCC.O=S(=O)([N-]S(=O)(=O)C(F)(F)F)C(F)(F)F,1267.21 ± 2,299.3 ± 9.5,0.0367 ± 0.0037,1258.68 ± 2,0.126 ± 0.002,156 ± 3.4,0.0743 ± 0.0074,1250.31 ± 2,0.125 ± 0.002,87.7 ± 1.3,0.123 ± 0.012,1242.07 ± 2,0.122 ± 0.002,54.7 ± 0.7,0.187 ± 0.019,1233.84 ± 2,0.123 ± 0.002,38.4 ± 0.5,0.279 ± 0.028,0.122 ± 0.002,viscosity ([1]; 283.15 K): 616.7 ± 26 mPa·s; thermal conductivity ([1]; 283.15 K): 0.126 ± 0.002 W/m/K; mass density ([1]; 333.15 K): 1225.64 ± 2 kg/m3; viscosity ([1]; 343.15 K): 27.5 ± 0.3 mPa·s; electrical conductivity ([1]; 343.15 K): 0.405 ± 0.041 S/m; mass density ([1]; 343.15 K): 1217.49 ± 2 kg/m3; thermal conductivity ([1]; 343.15 K): 0.121 ± 0.002 W/m/K; refractive index ([2]; 283.15 K): 1.4403 ± 0.0005; refractive index ([2]; 293.15 K): 1.4374 ± 0.0005; refractive index ([2]; 303.15 K): 1.4344 ± 0.0005; refractive index ([2]; 313.15 K): 1.4314 ± 0.0005; refractive index ([2]; 323.15 K): 1.4285 ± 0.0005; refractive index ([2]; 333.15 K): 1.4255 ± 0.0005; refractive index ([2]; 343.15 K): 1.4228 ± 0.0005
CCCCn1cc[n+](C)c1.COS(=O)(=O)[O-] [1-butyl-3-methylimidazolium methyl sulfate],1218.78 ± 2,269.1 ± 8,0.104 ± 0.01,1211.96 ± 2,0.177 ± 0.002,151.9 ± 3.3,0.177 ± 0.018,1205.33 ± 2,0.176 ± 0.002,91.7 ± 1.4,0.279 ± 0.028,1198.79 ± 2,0.176 ± 0.002,59.6 ± 0.7,0.426 ± 0.043,1192.26 ± 2,0.174 ± 0.002,40.5 ± 0.5,0.623 ± 0.062,0.173 ± 0.002,viscosity ([1]; 283.15 K): 531.6 ± 22 mPa·s; thermal conductivity ([1]; 283.15 K): 0.179 ± 0.002 W/m/K; mass density ([1]; 333.15 K): 1185.76 ± 2 kg/m3; viscosity ([1]; 343.15 K): 28.9 ± 0.4 mPa·s; electrical conductivity ([1]; 343.15 K): 0.884 ± 0.088 S/m; mass density ([1]; 343.15 K): 1179.31 ± 2 kg/m3; thermal conductivity ([1]; 343.15 K): 0.172 ± 0.002 W/m/K; refractive index ([2]; 283.15 K): 1.4831 ± 0.0005; refractive index ([2]; 293.15 K): 1.4804 ± 0.0005; refractive index ([2]; 303.15 K): 1.4781 ± 0.0005; refractive index ([2]; 313.15 K): 1.4753 ± 0.0005; refractive index ([2]; 323.15 K): 1.4729 ± 0.0005; refractive index ([2]; 333.15 K): 1.4704 ± 0.0005; refractive index ([2]; 343.15 K): 1.4678 ± 0.0005
COS(=O)(=O)[O-].C[n+]1ccccc1 [1-methylpyridinium methylsulfate],1355 ± 2.1,113.5 ± 2,0.287 ± 0.029,1348.1 ± 2.1,0.205 ± 0.002,69.2 ± 0.9,0.45 ± 0.045,1341.3 ± 2.1,0.204 ± 0.002,46 ± 0.6,0.683 ± 0.068,1334.5 ± 2.1,0.204 ± 0.002,32 ± 0.4,0.986 ± 0.099,1327.8 ± 2.1,0.203 ± 0.002,23 ± 0.3,1.36 ± 0.14,0.202 ± 0.002,viscosity ([1]; 283.15 K): 199 ± 4.9 mPa·s; thermal conductivity ([1]; 283.15 K): 0.205 ± 0.002 W/m/K; mass density ([1]; 333.15 K): 1321.1 ± 2.1 kg/m3; viscosity ([1]; 343.15 K): 17.3 ± 0.2 mPa·s; electrical conductivity ([1]; 343.15 K): 1.75 ± 0.18 S/m; mass density ([1]; 343.15 K): 1314.5 ± 2.1 kg/m3; thermal conductivity ([1]; 343.15 K): 0.201 ± 0.002 W/m/K; refractive index ([2]; 283.15 K): 1.5164 ± 0.0005; refractive index ([2]; 293.15 K): 1.5139 ± 0.0005; refractive index ([2]; 303.15 K): 1.5113 ± 0.0005; refractive index ([2]; 313.15 K): 1.5088 ± 0.0005; refractive index ([2]; 323.15 K): 1.5063 ± 0.0005; refractive index ([2]; 333.15 K): 1.5039 ± 0.0005; refractive index ([2]; 343.15 K): 1.5013 ± 0.0005
OCC(O)CO [glycerol],,,,,0.284 ± 0.002,,,,0.284 ± 0.002,,,,0.284 ± 0.002,,,,0.284 ± 0.002,,,0.284 ± 0.002,thermal conductivity ([1]; 283.15 K): 0.284 ± 0.002 W/m/K
CCCC[P+](C)(CCCC)CCCC.[Cl-] [methyltributylphosphonium chloride],964.23 ± 2,13511 ± 1300,0.00254 ± 0.00026,958.67 ± 2,0.159 ± 0.002,4692 ± 360,0.0059 ± 0.00059,953.44 ± 2,0.158 ± 0.002,1914 ± 120,0.0131 ± 0.0013,948.08 ± 2,0.157 ± 0.002,859 ± 42,0.029 ± 0.0029,942.74 ± 2,0.156 ± 0.002,416.8 ± 16,0.052 ± 0.0052,0.155 ± 0.002,mass density ([1]; 333.15 K): 937.42 ± 2 kg/m3; electrical conductivity ([1]; 343.15 K): 0.0941 ± 0.0094 S/m; mass density ([1]; 343.15 K): 932.12 ± 2 kg/m3; thermal conductivity ([1]; 343.15 K): 0.154 ± 0.002 W/m/K; refractive index ([2]; 283.15 K): 1.5053 ± 0.0005; refractive index ([2]; 293.15 K): 1.5037 ± 0.0005; refractive index ([2]; 303.15 K): 1.4999 ± 0.0005; refractive index ([2]; 313.15 K): 1.4972 ± 0.0005; refractive index ([2]; 323.15 K): 1.4952 ± 0.0005; refractive index ([2]; 333.15 K): 1.4923 ± 0.0005; refractive index ([2]; 343.15 K): 1.4888 ± 0.0005
CCCC[P+](C)(CCCC)CCCC.COS(=O)(=O)[O-] [tributylmethylphosphonium methyl sulfate],1066.59 ± 2,1434 ± 82,0.00749 ± 0.00075,1060.4 ± 2,0.16 ± 0.002,650.6 ± 29,0.0158 ± 0.0016,1054.25 ± 2,0.159 ± 0.002,339.2 ± 11,0.0278 ± 0.0028,1048.13 ± 2,0.159 ± 0.002,189.4 ± 4.6,0.0483 ± 0.0048,1042.02 ± 2,0.158 ± 0.002,113.9 ± 2,0.0882 ± 0.0088,0.157 ± 0.002,mass density ([1]; 333.15 K): 1036.12 ± 2 kg/m3; viscosity ([1]; 343.15 K): 72.4 ± 1 mPa·s; electrical conductivity ([1]; 343.15 K): 0.139 ± 0.014 S/m; mass density ([1]; 343.15 K): 1030.18 ± 2 kg/m3; thermal conductivity ([1]; 343.15 K): 0.157 ± 0.002 W/m/K; refractive index ([2]; 283.15 K): 1.4782 ± 0.0005; refractive index ([2]; 293.15 K): 1.4755 ± 0.0005; refractive index ([2]; 303.15 K): 1.4728 ± 0.0005; refractive index ([2]; 313.15 K): 1.4702 ± 0.0005; refractive index ([2]; 323.15 K): 1.4673 ± 0.0005; refractive index ([2]; 333.15 K): 1.4647 ± 0.0005; refractive index ([2]; 343.15 K): 1.4619 ± 0.0005
